{"source": "patent US11058685B2", "about": "“Therapeutic agent for tumors identified by phosphorylation of proto-oncogene protein belonging to VAV family” (priority 2016, dated 2021)", "key": {"phosphorylated VAV1": {"test_system": "phosphorylated VAV1", "experiment": "Anti-phosphorylated VAV1 staining of swollen lymph node sections of AITL transplant model mice", "assay_type": "in vivo, mouse", "conditions": "nude mice; dasatinib three times daily for 2 days, 2 weeks after cell injection; sacrificed on the following day", "protocol": "In addition, donor mouse swollen lymph node-derived cells (2×10^7 cells) were all intraperitoneal injected into nude mice and, after 2 weeks, dasatinib or a control solution was administered three times daily for 2 days in accordance with the above procedure. On the following day, the nude mice were sacrificed, and thin section specimens were prepared from their swollen lymph nodes and then stained with anti-phosphorylated VAV1 antibody."}, "VAV1 [1]": {"test_system": "VAV1", "experiment": "VAV1 Y174 phosphorylation in Jurkat cells expressing VAV1 mutant, anti-CD3 stimulation", "assay_type": "cell-based, human", "conditions": "dasatinib 0 to 10 nM, 30 minutes, FIG. 15"}, "[2]": {"test_system": "angioimmunoblastic T-cell lymphoma (AITL) model mice", "experiment": "AITL therapeutic transplant model: nude mice injected with donor mouse swollen lymph node-derived cells", "assay_type": "in vivo", "protocol": "An AITL model is regarded as having been established, but a long incubation period is required to observe oncogenesis after pIpC administration. For this reason, this genetically modified mouse model is not suitable for use in therapeutic experiments. Thus, an attempt was made to establish a transplant model. […] It should be noted that inflammatory cells migrating to the tumor tissue were composed of donor mouse-derived cells and host mouse-derived cells in admixture.\nDonor mouse swollen lymph node-derived cells (2×10^7 cells) were all intraperitoneally injected into nude mice and, after 2 weeks (after lymph node swelling was observed by echography in some mice), 5 mg/kg of dasatinib dissolved in a solution of propylene glycol:distill water adjusted to 1:1 was orally administered to the mice for successive 14 days (the dasatinib group: “Dasatinib” in FIG. 17). As a control, nude mice under completely the same conditions were administered with the same volume of the solution alone (propylene glycol: distill water=1:1) according to the same schedule (the control group: “Vehicle” in FIG. 17). The results of these administration experiments are show in FIG. 17."}, "NFAT activity": {"test_system": "NFAT activity", "experiment": "NFAT luciferase reporter activity in Jurkat cells expressing VAV1 mutant", "assay_type": "cell-based, human", "conditions": "dasatinib 0 to 10 nM, 30 minutes, anti-CD3 stimulation, FIG. 16", "protocol": "In accordance with the protocol of Dual Luciferase Reporter Assay (Promega), firefly luciferase activity and renilla luciferase activity were each measured, and the value of firefly luciferase was divided by the value of renilla luciferase to correct the transfection efficiency. In more detail, the cells were mixed with Passive Lysis Buffer (PLB) in a volume of 100 μl/tube, followed by freezing at −80° C. to lyse the cells. After centrifugation, the supernatants were collected. In a 96-well plate. LARII was dispensed in a volume of 100 μl/well. 20 μl of each cell lysate was added. The plate was mounted on a luminometer and Stop & Glo® Reagent was added in 100 μL volumes, followed by measurement again with the luminometer.\nIn a 96-well flat-bottomed plate, LEAF™ purified anti-human CD3 Ab (BioLegend) adjusted to 10 μg/ml with PBS was dispensed in a volume of 50 μL/well and incubated overnight at 4° C. After removal of the antibody solution, each well was washed three times with sterile PBS.\nJurkat cells were seeded at 5×10^4 cells/well in a 24-well plate. […] After 30 minutes, the cells were collected and then stimulated with LEAF™ purified anti-human CD3 Ab (BioLegend) and measured for firefly luciferase activity and renilla luciferase activity by reference to Example 3 described above, etc."}, "PLC-gamma 1": {"test_system": "PLC-gamma 1", "experiment": "PLC-gamma 1 phosphorylation (Western blot) in Jurkat cells expressing G17V RHOA mutant", "assay_type": "cell-based, human", "conditions": "dasatinib 0 to 10 nM, 30 minutes, FIG. 7(B)", "protocol": "(§1) (1) Jurkat cells (T-cell leukemia cell line) engineered with a lentivirus-mediated Tet-On system to express wild-type RHOA cDNA or a RHOA coding region modified to comprise a G to T substitution at position 50 of the coding region (hereinafter referred to as G17V RHOA cDNA) were seeded in RPMI (10% FCS, 1% PS) at 2×10^5 cells/mL in 15 cm petri dishes in triplicate. Doxycycline was added to give a final concentration of 2 μg/mL. On the following day, the cells were collected and centrifuged, and then seeded in RPMI (serum-free) at 6×10^5 cells/mL in 15 cm petri dishes in triplicate. After 4 hours, the cells were collected and washed once with sterile phosphate buffered saline (PBS), and then adjusted to 2×10^4 cells/ml and transferred to 15 ml tubes, followed by incubation at 37° C. for 5 minutes. LEAF™ purified anti-human CD3 Ab (BioLegend) and anti-mouse IgG antibody Ab (at 2 μg/ml each) were added. The cells were incubated at 37° C. for 5 minutes or 30 minutes. Cold PBS (10 ml) was added to each tube, followed by centrifugation to remove the supernatants. Lysis buffer (supplemented in advance with complete protease inhibitor and PhosSTOP) was added in a volume of 1000 μl/tube. The tubes were incubated on ice for 20 minutes and centrifuged to collect the supernatants. Laemuli's buffer and DTT were added, followed by incubation at 95° C. for 5 minutes. […]"}, "[3]": {"test_system": "interleukin-2 mRNA expression", "experiment": "Interleukin-2 mRNA expression in Jurkat cells expressing G17V RHOA mutant, CD3/CD28 bead stimulation", "assay_type": "cell-based, human", "conditions": "dasatinib 0 to 10 nM, CD3/CD28 beads, 3 hours, FIG. 8", "protocol": "Dynabeads T-activator CD3/CD28 (Veritas) were mixed with buffer (PBS supplemented with 0.1% BSA+2 mM EDTA, pH 7.4) and allowed to stand on a magnetic rack to remove the supernatant.\nJurkat cells engineered with a lentivirus-mediated Tet-On system to express wild-type or G17V RHOA cDNA were seeded in RPMI (10% FCS, 1% PS) at 2×10^5 cells/mL in 15 cm petri dishes in triplicate. Doxycycline was added to give a final concentration of 2 μg/mL. On the following day, the cells were collected and seeded in a 24-well plate. The Dynabeads T-activator CD3/CD28 (Veritas) washed above were added. After 3 and 6 hours, the cells were collected. The cells were washed once with PBS and their RNA was extracted with an RNeasy Mini Kit (Qiagen). […] IL-2 mRNA was measured with the primer/probe sets of Taqman Gene Expression Assays (Thermo Fisher Scientific). rRNA was measured with TaqMan® Ribosomal RNA Control Reagents (Thermo Fisher Scientific) and used for correction.\nJurkat cells engineered with a lentivirus-mediated Tet-On system to express wild-type RHOA or G17V RHOA cDNA were seeded in RPMI (10% FCS, 1% PS) at 2×10^5 cells/mL in 15 cm petri dishes in triplicate. […] IL-2 mRNA was measured with the primer/probe sets of Taqman Gene Expression Assays (Thermo Fisher Scientific). rRNA was measured with TaqMan® Ribosomal RNA Control Reagents (Thermo Fisher Scientific) and used for correction."}, "VAV1 [4]": {"test_system": "VAV1", "experiment": "VAV1 Y174 phosphorylation (Western blot) in Jurkat cells expressing G17V RHOA mutant, anti-CD3 stimulation", "assay_type": "cell-based, human", "conditions": "dasatinib 0 to 10 nM, 30 minutes, FIG. 7(A)", "protocol": "as §1"}, "[5]": {"conditions": "5 mg/kg orally for successive 14 days, FIG. 17"}}, "data": [{"smiles": "Cc1nc(Nc2ncc(C(=O)Nc3c(C)cccc3Cl)s2)cc(N2CCN(CCO)CC2)n1", "note": "[dasatinib, N-(2-chloro-6-methyl-phenyl)-2-[[6-[4-(2-hydroxyethyl)-1-piperazinyl]-2-methyl-4-pyrimidinyl]amino]-5-thiazolecarboxamide]", "values": [{"measurement": "phosphorylated VAV1 staining in swollen lymph nodes", "setting": "phosphorylated VAV1", "result": "phosphorylated VAV1 was not stained"}, {"measurement": "enhanced Y174 phosphorylation induced by VAV1 mutant expression", "setting": "VAV1 [1]", "result": "cancels the enhanced Y174 phosphorylation"}, {"measurement": "mice showing progression of lymphoma (body weight loss and hyposthenia)", "setting": "[2]; 5 mg/kg orally for successive 14 days starting 2 weeks after cell injection, observation period of 150 days, 6/18", "result": 33.3, "unit": "%"}, {"measurement": "progression of lymphoma versus control group", "setting": "[2]; [5]", "result": "progression was significantly suppressed"}, {"measurement": "survival versus control group", "setting": "[2]; [5]", "result": "survival was prolonged"}, {"measurement": "enhanced NFAT activity induced by VAV1 mutant expression", "setting": "NFAT activity", "result": "cancels the enhanced NFAT activity"}, {"measurement": "enhanced PLC-gamma 1 phosphorylation induced by G17V RHOA mutant expression", "setting": "PLC-gamma 1", "result": "cancels the enhanced PLC-gamma 1 phosphorylation"}, {"measurement": "enhanced interleukin-2 mRNA expression induced by G17V RHOA mutant expression", "setting": "[3]", "result": "cancels the enhanced interleukin-2 mRNA expression"}, {"measurement": "enhanced Y174 phosphorylation (VAV1) induced by G17V RHOA mutant expression", "setting": "VAV1 [4]", "result": "cancels the enhanced Y174 phosphorylation"}]}]}
